{"source": "paper PMC12018053", "about": "(Biochemistry and Biophysics Reports, 2025)", "key": {"[1]": {"biological_target": "T1, 5-HT2C (Homo sapiens, UniProt P28335)", "T1 sequence (P28335 33-458)": "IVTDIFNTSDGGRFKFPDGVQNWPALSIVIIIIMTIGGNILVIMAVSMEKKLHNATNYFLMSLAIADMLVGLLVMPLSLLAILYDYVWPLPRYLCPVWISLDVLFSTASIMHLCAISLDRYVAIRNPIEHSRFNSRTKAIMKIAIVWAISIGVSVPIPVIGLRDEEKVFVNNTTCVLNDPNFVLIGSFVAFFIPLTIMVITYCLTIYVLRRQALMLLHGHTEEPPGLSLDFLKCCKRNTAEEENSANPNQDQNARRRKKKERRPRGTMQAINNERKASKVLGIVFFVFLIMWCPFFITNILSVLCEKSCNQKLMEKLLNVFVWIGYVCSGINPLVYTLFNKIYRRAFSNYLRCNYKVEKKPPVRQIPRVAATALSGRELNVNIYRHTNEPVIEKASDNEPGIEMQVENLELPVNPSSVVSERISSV", "assay": "NIMH PDSP primary binding screen, 5-HT2C", "details": "read-out: Inhibition (%) 5-HT2C"}, "[2]": {"test_system": "female Sprague-Dawley rats", "assay": "Orofacial formalin test without nitroglycerin", "format": "in vivo, rat", "details": "3 mg/kg i.p. 30 min before formalin, no nitroglycerin pretreatment"}, "[3]": {"biological_target": "T2, 5-HT1A (Homo sapiens, UniProt P08908)", "T2 sequence (P08908 1-422)": "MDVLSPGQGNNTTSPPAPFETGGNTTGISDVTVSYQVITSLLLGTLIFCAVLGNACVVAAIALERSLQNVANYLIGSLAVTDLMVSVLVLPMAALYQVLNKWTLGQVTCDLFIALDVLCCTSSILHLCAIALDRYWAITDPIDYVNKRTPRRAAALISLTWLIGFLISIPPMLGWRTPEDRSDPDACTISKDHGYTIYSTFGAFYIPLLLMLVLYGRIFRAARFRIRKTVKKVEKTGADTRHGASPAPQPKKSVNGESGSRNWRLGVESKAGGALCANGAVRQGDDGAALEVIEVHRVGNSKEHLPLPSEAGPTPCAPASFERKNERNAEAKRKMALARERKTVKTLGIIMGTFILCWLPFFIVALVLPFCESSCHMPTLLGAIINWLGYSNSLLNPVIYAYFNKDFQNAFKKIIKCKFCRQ", "assay": "NIMH PDSP primary binding screen, 5-HT1A", "details": "read-out: Inhibition (%) 5-HT1A"}, "[4]": {"biological_target": "Delta opioid (DOR) (Homo sapiens, UniProt P41143)", "sequence (P41143 whole entry)": "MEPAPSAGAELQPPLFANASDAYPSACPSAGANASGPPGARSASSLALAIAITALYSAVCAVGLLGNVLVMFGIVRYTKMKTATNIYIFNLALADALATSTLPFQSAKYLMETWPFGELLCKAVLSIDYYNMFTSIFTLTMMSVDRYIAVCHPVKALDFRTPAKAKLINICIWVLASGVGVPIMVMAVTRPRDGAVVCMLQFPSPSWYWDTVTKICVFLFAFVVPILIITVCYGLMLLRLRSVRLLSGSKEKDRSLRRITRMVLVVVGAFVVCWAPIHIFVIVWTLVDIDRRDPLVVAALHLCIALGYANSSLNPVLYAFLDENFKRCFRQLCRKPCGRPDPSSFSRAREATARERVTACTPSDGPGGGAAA", "assay": "NIMH PDSP primary binding screen, DOR", "details": "read-out: Inhibition (%) Delta opioid (DOR)"}, "[5]": {"assay": "Microsomal stability assay in human liver microsomes", "format": "in vitro ADME", "details": "pH 7.4"}, "[6]": {"assay": "Microsomal stability assay in rat liver microsomes", "format": "in vitro ADME", "details": "pH 7.4"}, "[7]": {"biological_target": "T3, Mouse sEH (Mus musculus, UniProt P34914)", "T3 sequence (P34914 1-554)": "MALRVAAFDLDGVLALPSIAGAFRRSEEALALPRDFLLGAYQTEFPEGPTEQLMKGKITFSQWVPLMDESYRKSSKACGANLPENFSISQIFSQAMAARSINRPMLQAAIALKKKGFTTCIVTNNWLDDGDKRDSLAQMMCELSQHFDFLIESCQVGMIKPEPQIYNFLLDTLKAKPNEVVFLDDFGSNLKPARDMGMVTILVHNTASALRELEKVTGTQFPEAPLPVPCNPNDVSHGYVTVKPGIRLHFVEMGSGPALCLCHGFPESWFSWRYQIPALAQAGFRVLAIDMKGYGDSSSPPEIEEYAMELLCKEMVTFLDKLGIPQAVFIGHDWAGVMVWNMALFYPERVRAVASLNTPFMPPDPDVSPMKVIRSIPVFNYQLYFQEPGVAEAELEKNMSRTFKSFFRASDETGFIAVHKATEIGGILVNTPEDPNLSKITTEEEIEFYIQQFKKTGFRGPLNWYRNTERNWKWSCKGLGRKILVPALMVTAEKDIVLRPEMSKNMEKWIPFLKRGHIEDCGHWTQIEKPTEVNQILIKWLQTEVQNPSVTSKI", "assay": "sEH fluorescent-based inhibition assay", "format": "biochemical"}, "[8]": {"biological_target": "Kappa opioid (KOR) (Homo sapiens, UniProt P41145)", "sequence (P41145 whole entry)": "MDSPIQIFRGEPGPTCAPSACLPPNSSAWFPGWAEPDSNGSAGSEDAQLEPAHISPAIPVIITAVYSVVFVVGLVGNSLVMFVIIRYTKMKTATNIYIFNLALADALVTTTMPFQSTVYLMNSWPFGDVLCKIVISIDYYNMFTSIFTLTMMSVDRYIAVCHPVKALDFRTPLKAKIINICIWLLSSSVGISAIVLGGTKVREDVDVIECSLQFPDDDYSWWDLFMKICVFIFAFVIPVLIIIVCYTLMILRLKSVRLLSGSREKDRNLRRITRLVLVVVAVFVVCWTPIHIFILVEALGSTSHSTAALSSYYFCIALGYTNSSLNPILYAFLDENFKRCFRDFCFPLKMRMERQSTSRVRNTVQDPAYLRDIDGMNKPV", "assay": "NIMH PDSP primary binding screen, KOR", "details": "read-out: Inhibition (%) Kappa opioid (KOR)"}, "[9]": {"assay": "physchem", "details": "sodium phosphate buffer, 24 °C, pH 7.4, aqueous buffer, kinetic from dmso stock"}, "[10]": {"biological_target": "T4, 5-HT3 (Homo sapiens, UniProt P46098)", "T4 sequence (P46098 24-478)": "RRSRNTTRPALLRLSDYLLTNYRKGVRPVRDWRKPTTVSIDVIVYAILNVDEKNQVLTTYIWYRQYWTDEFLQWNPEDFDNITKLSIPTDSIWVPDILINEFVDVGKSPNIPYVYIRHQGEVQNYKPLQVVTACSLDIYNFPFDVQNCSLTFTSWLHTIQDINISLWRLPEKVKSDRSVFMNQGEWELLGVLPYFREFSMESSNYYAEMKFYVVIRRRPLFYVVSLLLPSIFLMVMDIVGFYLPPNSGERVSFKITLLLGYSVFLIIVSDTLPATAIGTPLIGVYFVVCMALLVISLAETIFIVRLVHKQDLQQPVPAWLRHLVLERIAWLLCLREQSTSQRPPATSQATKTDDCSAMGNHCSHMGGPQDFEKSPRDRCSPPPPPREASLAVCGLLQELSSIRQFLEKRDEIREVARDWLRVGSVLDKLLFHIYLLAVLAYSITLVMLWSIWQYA", "assay": "NIMH PDSP primary binding screen, 5-HT3", "details": "read-out: Inhibition (%) 5-HT3"}, "[11]": {"biological_target": "5-HT2A (Homo sapiens, UniProt P28223)", "sequence (P28223 whole entry, species assumed)": "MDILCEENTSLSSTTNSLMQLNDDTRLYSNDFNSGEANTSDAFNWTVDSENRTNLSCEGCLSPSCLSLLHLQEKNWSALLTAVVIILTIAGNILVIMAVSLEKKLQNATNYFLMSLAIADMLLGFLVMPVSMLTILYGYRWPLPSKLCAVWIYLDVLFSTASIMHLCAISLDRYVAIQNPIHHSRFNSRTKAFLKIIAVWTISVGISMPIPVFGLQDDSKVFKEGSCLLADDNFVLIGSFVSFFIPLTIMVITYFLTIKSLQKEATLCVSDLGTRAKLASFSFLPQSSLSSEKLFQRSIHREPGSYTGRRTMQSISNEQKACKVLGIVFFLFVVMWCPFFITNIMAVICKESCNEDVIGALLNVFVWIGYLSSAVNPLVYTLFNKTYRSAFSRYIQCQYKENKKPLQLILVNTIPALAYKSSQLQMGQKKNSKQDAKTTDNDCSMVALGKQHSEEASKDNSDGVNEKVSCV", "assay": "NIMH PDSP primary binding screen, 5-HT2A", "details": "read-out: Inhibition (%) 5-HT2A"}, "[12]": {"biological_target": "Mu opioid (MOR) (Homo sapiens, UniProt P35372)", "sequence (P35372 whole entry)": "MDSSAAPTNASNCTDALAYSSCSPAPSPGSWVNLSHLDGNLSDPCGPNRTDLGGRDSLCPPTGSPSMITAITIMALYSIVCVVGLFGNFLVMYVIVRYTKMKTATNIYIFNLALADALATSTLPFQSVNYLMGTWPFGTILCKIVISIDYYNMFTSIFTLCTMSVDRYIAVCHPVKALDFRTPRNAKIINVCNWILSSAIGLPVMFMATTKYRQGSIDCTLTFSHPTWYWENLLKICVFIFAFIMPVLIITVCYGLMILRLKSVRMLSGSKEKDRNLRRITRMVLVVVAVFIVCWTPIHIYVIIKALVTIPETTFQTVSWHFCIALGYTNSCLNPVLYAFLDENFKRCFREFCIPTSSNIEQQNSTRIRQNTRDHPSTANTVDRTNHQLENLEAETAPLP", "assay": "NIMH PDSP primary binding screen, MOR", "details": "read-out: Inhibition (%) Mu opioid (MOR)"}}, "data": [{"smiles": "O=C(Nc1ccc(-c2ccc3ccncc3c2)cc1)C1CCN(S(=O)(=O)c2ccccc2Cl)CC1", "note": "[Compound 4f, 1-((2-chlorophenyl)sulfonyl)-N-(4-(isoquinolin-7-yl)phenyl)piperidine-4-carboxamide]", "values": [{"measurement": "inhibition at 10 µM", "setting": "[1]", "result": "21.5 ± 4.63", "unit": "%"}, {"measurement": "Time spent rubbing the injected area vs vehicle", "setting": "[2]", "result": "no significant difference"}, {"measurement": "inhibition at 10 µM", "setting": "[3]", "result": "4.83 ± 2.43", "unit": "%"}, {"measurement": "inhibition at 10 µM", "setting": "[4]", "result": "3.1 ± 1.53", "unit": "%"}, {"measurement": "half-life at 1 µM", "setting": "[5]", "result": 58, "unit": "min"}, {"measurement": "microsomal CLint at 1 µM", "setting": "[5]", "result": 23.7, "unit": "µL/min/mg"}, {"measurement": "half-life at 1 µM", "setting": "[6]", "result": 25.6, "unit": "min"}, {"measurement": "microsomal CLint at 1 µM", "setting": "[6]", "result": 54, "unit": "µL/min/mg"}, {"measurement": "IC50", "setting": "[7]", "result": 107, "unit": "nM"}, {"measurement": "inhibition at 10 µM", "setting": "[8]", "result": "-18.1 ± 2.56", "unit": "%"}, {"measurement": "solubility", "setting": "[9]", "result": 54.4, "unit": "µM"}, {"measurement": "inhibition at 10 µM", "setting": "[10]", "result": "-0.28 ± 5.94", "unit": "%"}, {"measurement": "inhibition at 10 µM", "setting": "[11]", "result": "17.4 ± 4.69", "unit": "%"}, {"measurement": "inhibition at 10 µM", "setting": "[12]", "result": "10.6 ± 4.75", "unit": "%"}]}]}
